# Literature values as cited in US20140366440A1, “METHOD FOR PRODUCING CLONE SEEDLINGS” (OKAYAMA PREFECTURE, priority 2009, published 2014).
# Legend:
# [1] = tested on: callus of a tobacco plant; conditions: cited from earlier work
# [2] = tested on: calluses of a Russell prairie gentian; conditions: medium containing glutathione; cited from earlier work
# [3] = tested on: calluses of a rice plant; conditions: medium containing glutathione; cited from earlier work
# [4] = tested on: Eucalyptus globulus elite tree; conditions: in the presence of auxin; Sotelo and Monza, Agrociencia (2007); cited from earlier work
compound,measurement,setting,value
"CCCCS(=N)(=O)CCC(N)C(=O)O (centres unmarked) [buthionine sulfoximine (BSO), buthionine sulfoximine, reference compound]",number of differentiation of adventitious buds per callus,[1]; addition of BSO,remarkably increases
N[C@@H](CCC(=O)N[C@@H](CS)C(=O)NCC(=O)O)C(=O)O [glutathione],forming an adventitious bud from callus,[1]; addition of glutathione of 1 mM,inhibits
same,redifferentiation of callus,[2],promotes redifferentiation
same,redifferentiation of callus,[3],promotes redifferentiation
auxin,rooting rate,[4],≤ 25%
